Measurements from patent US20060154952A1, “Pharmaceutical compositions comprising a combination of rapamycin or its derivative and pimecrolimus for the treatment of inflammation-and ummunologically-mediated diseases” (priority 2003, published 2006).

Tests used:
Type in all cases: in vivo
SCID-IBD mice [1] = experiment: SCID-IBD mouse model: colon inflammation, histological severity score; details: for effect on colon inflammation (severity scores): low dose study: ASM 10 mg/kg/d, Compound A 0.05 mg/kg/d, alone or combined
Method: (§1) SCID mice are first reconstituted with the CD4^+CD45RB^HI T cells and then treated with test compounds or vehicle as controls. As test compounds Compound A (RAD) and pimecrolimus (ASM) are used. 3 separate studies using different dosaging are carried out. In each study both compounds are administered alone and combined. All 3 studies follow the same basic protocol of 4 groups of mice with one group receiving, by daily oral gavage, both vehicles (placebo), one group Compound A alone, one group ASM alone, and one group a combination of Compound A and pimecrolimus, from day 1 to day 29 after cell transfer.
A photographic picture is taken of the opened abdominal cavity and then a 1 cm long piece of the colon, just above the rectum, is fixed in formalin for histology.
(§2) Specimens are embedded in paraffin, sections (3 μm thick) are cut and stained with H & E. Four colour FACS analysis is performed on cell suspensions prepared from the blood, spleen and mesenteric lymph nodes (MLNS) of each mouse.
All data presented as mean values are qualified by an s.e.m. value. The body weight data are analysed either by repeated measures analysis or by first finding the mean AUC and then applying an ANOVA multiple comparison test with Tukey post hoc correction. Histology scores are represented as the mean severity score and compared with a Wilcoxon-Mann-Whitney test with exact p-values (StatXact-5 software) and Bonferroni post hoc correction factor. All other data are first analysed for normal distribution and then the ANOVA test for multiple comparison is applied. Statistical significance is taken as p<0.05.
The inflammation in the colon of SCID-IBD mice shares many features observed in lesional tissue of a Crohn's diseased colon. In order to examine the intestinal mucosal damage in SCID-IBD mice a histological examination of the colon sections was performed according to defined morphological parameters. The severe colitis associated with this model of IBD is characterized with a massive cellular infiltrate which in places involves nearly all of the submucosa. The infiltrate is mixed and comprised of lymphocytes, macrophages, neutrophils and some eosinophils. Also evident is the loss of crypt architecture, extensive elongation and epithelial hyperplasia. A severely inflamed colon section will also have crypt abscesses. Numeric scores were given as per the following scheme: a score of 0 to 3 is given for the leucocyte infiltrate where 1 is mild, 2 is moderate and 3 is a severe infiltrate including the submucosal layer. A score of 0 to 2 is given for Goblet cell depletion where 2 is given for a complete lack of the alcian blue staining, 0 is given for a normal amount of staining and 1 is intermediate. […] The maximum possible score is 8 and (PBS)-mice are scored 0. […]

SCID-IBD mice [2] = experiment: SCID-IBD mouse model: overall disease inhibition / effective dose; details: single treatment groups: ASM 60, 30, 10 mg/kg/d; Compound A 0.1, 0.05 mg/kg/d
Source text: (§3) Female BALB/cJ and C.B.17 scid/scid mice (Fox Chase SCID®, Bomholtgaard, Denmark) are maintained in ventilated cage racks (Micro-vent type 84-II, Allentown Caging Equipment Co., Allentown, N.J., USA) under specific pathogen free conditions. The experimental procedures performed on the mice are authorized under the license number MA 1048/00 (Magistratabteilung No. 58, Amt der Wiener Landesregierung).
Briefly, CD4^+CD45RB^HI T lymphocytes are isolated from BALB/c mouse spleens by two-colour FACS-sorting through a live/dead gate and injected (2×10^5 cells/mouse, i.p.) into 6-9 week old female SCID mice. […]
(§4) The increasing T cell population with time also results in an increase in size of lymphoid organs which are otherwise comparatively small in the non-transferred SCID mouse. By day 28 post T cell transfer the inflammation is relatively consistent within a group of mice and this has been adopted as the shortest time where accurate effects of treatment with test compounds can be measured. The effects of a range of doses of Compound A and ASM as single preventative compounds are, in brief, comparative effective dose ranges are found to be from 30 to 100 mg/kg/d administration of ASM and 0.1 to 1 mg/kg/d of Compound A. In the present tests sub-maximal doses of each compounds are used and the effect of the single and combined treatment in the same study is determined.

SCID-IBD mice [3] = experiment: SCID-IBD mouse model: serum haptoglobin levels; details: for reduction of serum haptoglobin levels: ASM at 60 and 30 mg/kg/d, Compound A at 0.1 or 0.05 mg/kg/d, alone; for % reduction of serum haptoglobin: low dose study: ASM 10 mg/kg/d, Compound A 0.05 mg/kg/d, alone or combined
Method: as §1
The mice are anaesthetized at the end of the study and blood withdrawn via cardiac puncture for separation into serum which is frozen and stored at −80°.
(§5) The mean of these values for a group of mice can thus be calculated. To process some of the data further, the determined values are adjusted by subtracting the background value found in non-transferred mice and calculating the % reduction, or indeed increase, in mean cell number, relative to the placebo treated group.
as §4

SCID-IBD mice [4] = experiment: SCID-IBD mouse model: lymphocyte numbers (CD3+CD4+) by FACS in blood, spleen and MLN; details: for lymphocyte numbers in single treatment groups: study 2: ASM 30 mg/kg/d or Compound A 0.1 mg/kg/d administered alone
Method: as §1
Blood is also taken into 10 mM EDTA for preparation for FACS analysis.
The spleen and MLN are taken from each mouse, weighed and processed for FACS analysis of single cell suspensions.
as §2
Antibodies are obtained from Pharmingen. Cells which are double positive for CD3 and CD4 are counted as lymphocytes. Cells positive for Ly-6G (myeloid differentiation antigen) and negative for CD3 or CD4 are neutrophils (also their cellular characteristics (forward and side scatter) distinguishes them from the other cells).
The number of cells per sample is calculated from the total cell number in each cell suspension and the % of positively identified (samples analysed on a FACS Calibur® using CellQuest Pro® software) cells per sample.
as §5

SCID-IBD mice [5] = experiment: SCID-IBD mouse model: loss of body weight; details: for effect on the loss of body weight: either compound alone at the dosages used (ASM 60, 30, 10 mg/kg/d; Compound A 0.1, 0.05 mg/kg/d), daily oral gavage
Source text: as §3
Briefly, CD4^+CD45RB^HI T lymphocytes are isolated from BALB/c mouse spleens by two-colour FACS-sorting through a live/dead gate and injected (2×10^5 cells/mouse, i.p.) into 6-9 week old female SCID mice. Negative control mice receive PBS i.p. and one such mouse is in each cage as a sentinel to monitor possible infections in this immunodeficient colony (PBS-mice).
SCID mice are first reconstituted with the CD4^+CD45RB^HI T cells and then treated with test compounds or vehicle as controls. As test compounds Compound A (RAD) and pimecrolimus (ASM) are used. 3 separate studies using different dosaging are carried out. In each study both compounds are administered alone and combined. […]
The body weight of each mouse is monitored throughout and at the end of the study mice are weighed.
All data presented as mean values are qualified by an s.e.m. value. The body weight data are analysed either by repeated measures analysis or by first finding the mean AUC and then applying an ANOVA multiple comparison test with Tukey post hoc correction. […] All other data are first analysed for normal distribution and then the ANOVA test for multiple comparison is applied. […]
The first visible symptom resulting from the transfer of disease causing CD4^+CD45RB^HI T cells to SCID mice is a severe loss of body weight, usually significant 21 days after transfer. […] In the 3 individual studies described herein, the mean % difference in body weight between the non-transferred and the vehicle-treated mice is calculated to be 16.3±1.8%.

## CC[C@@H]1/C=C(\C)C[C@H](C)C[C@H](OC)[C@H]2O[C@@](O)(C(=O)C(=O)N3CCCC[C@H]3C(=O)O[C@H](/C(C)=C/[C@@H]3CC[C@H](Cl)[C@H](OC)C3)[C@H](C)[C@@H](O)CC1=O)[C@H](C)C[C@@H]2OC [ASM, {[1E-(1R,3R,4S)]1R,9S,12S,13R,14S,17R,18E,21S,23S,24R,25S,27R}-12-[2-(4-chloro-3-methoxycyclohexyl)-1-methylvinyl]-17-ethyl-1,14-dihydroxy-23,25-dimethoxy-13,19,21,27-tetramethyl-1,28,dioxa-4-azatricyclo [22.3.1.0(4,9)]octacos-18-ene-2,3,10,16-tetraone]
SCID-IBD mice [1]; ASM981 60 mg/kg/d alone
  effect on colon inflammation (histology severity score): significant effect
SCID-IBD mice [1]
  effect on colon inflammation (severity scores): very little effect
SCID-IBD mice [2]
  disease inhibition, single treatment: significant effects
SCID-IBD mice [3]
  reduction of serum haptoglobin levels: potently reduces
  % reduction of serum haptoglobin: 32.7%
SCID-IBD mice [4]; study 1: ASM 60 mg/kg/d, alone or combined with Compound A 0.1 mg/kg/d
  reduction in lymphocyte numbers in MLN: 73.5%
SCID-IBD mice [4]
  lymphocyte numbers in single treatment groups: not reduced
SCID-IBD mice [5]; ASM alone 60 mg/kg/d, daily oral gavage day 1 to 29
  inhibition of weight loss: significant, but low inhibition of weight loss
SCID-IBD mice [5]
  effect on the loss of body weight: only minor effects

## CO[C@H]1C[C@@H]2CC[C@@H](C)[C@@](O)(O2)C(=O)C(=O)N2CCCC[C@H]2C(=O)O[C@H]([C@H](C)C[C@@H]2CC[C@@H](OCCO)[C@H](OC)C2)CC(=O)[C@H](C)/C=C(\C)[C@@H](O)[C@@H](OC)C(=O)[C@H](C)C[C@H](C)/C=C/C=C/C=C/1C [Compound A, 40-O-(2-hydroxyethyl)-rapamycin]
SCID-IBD mice [1]; Compound A alone at doses below 0.5 mg/kg/d
  activity on colon inflammation: not significantly active
SCID-IBD mice [1]
  effect on colon inflammation (severity scores): very little effect
SCID-IBD mice [3]
  reduction of serum haptoglobin levels: very weakly active
  % reduction of serum haptoglobin: 27.4%
SCID-IBD mice [4]; Compound A 0.1 mg/kg/d alone
  effects on lymphocyte numbers: only weal, if any effects
SCID-IBD mice [4]
  lymphocyte numbers in single treatment groups: not reduced
SCID-IBD mice [5]
  effect on the loss of body weight: only minor effects
